Test results reported in patent publication US20190077840A1, “SELECTIVE MCL-1 BINDING PEPTIDES” (MASSACHUSETTS INSTITUTE OF TECHNOLOGY, priority 2015, published 2019).
Numbered stars: 1 amine (or outer) side, 2 acyl side, 3 side chain; on linkers, the order of the positions; unused ones are H or OH. Bridge positions count the residues as written; N and C are the ends. Square brackets hold non-standard residues; d marks the D form. Peptide text beside a SMILES is read from it. ξ: configuration not given here. ξαMeNle(6-ylidene) = CC(CCCC=[*:3])(N[*:1])C(=O)[*:2]; Cha = N[C@@H](CC1CCCCC1)C(=O)O; Nle = CCCC[C@H](N)C(=O)O; Aib = CC(C)(N)C(=O)O

Tests used:
chymotrypsin = assay: Protease resistance: HPLC half-lives of peptides exposed to chymotrypsin
Mcl-1/Myc 2640 = format: cell-based, murine
Source text: (§1) A whole-cell BH3 profiling experiment quantifies the dependence of cancer cell mitochondrial integrity on specific anti-apoptotic proteins and can be predictive of cellular responses to chemotherapy (Ryan, J. A.; Brunelle, J. K.; Letai, A. Proc. Natl. Acad. Sci. 2010, 107 (29), 12895 and Ryan, J. A; Letai, A. Methods 2013, 61(2), 156). In this assay, permeabilized cells are stained with dye JC1 to monitor mitochondrial membrane integrity in response to increasing doses of BH3 peptides. We used this assay to test the specificity of our Mcl-1-binding stapled peptides in cell lines with different established dependencies on Bcl-xL and Mcl-1. Mcl-1/Myc 2640 is an engineered murine leukemia cell line overexpressing murine Mcl-1 and Myc, and MDA-MB 231 is a human breast cancer cell line with a primed Bcl-xL-dependent pro-file (Brunelle, J. K.; Ryan, J.; Yecies, D.; Opferman, J. T.; Letai, A. J Cell Biol. 2009, 187 (3), 429 and Ryan, J. A.; Brunelle, J. K.; Letai, A. Proc. Natl. Acad. Sci. 2010, 107 (29), 12895). By BH3 profiling using native BH3 peptides from BAD and NOXAA, we confirmed cell line dependencies on these anti-apoptotic proteins (FIG. 3). […] Mcl-1 2640 cell line is dependent on Mcl-1 whereas MDA-MB-231 is dependent on Bcl-xL, as indicated by response to NoxA and Bad, respectively. […]

MDA-MB 231 = format: cell-based, human
Source text: as §1

Mcl-1 = Mcl-1 (Homo sapiens, UniProt Q07820); assay: Competition fluorescence polarization/anisotropy assay with fluoresceinated Bim BH3 peptide for binding to Mcl-1
Source text: (§2) The standard errors reported are over three experiments.
Position 2e is usually conserved as small (alanine, glycine, serine) in natural BH3 sequences.

Bax/Bak deficient cells = assay: Whole-cell BH3 profiling in Bax/Bak deficient cells (BBDL); format: cell-based; conditions: Bax/Bak independent activity indicates non-specific toxicity
[1] = Circular dichroism spectroscopy (helicity); format: physicochemical; conditions: more helical than MS1
Procedure: as §2
The secondary structure of selected stapled peptides was assessed by circular dichroism (CD) spectroscopy (FIG. 1(c)). […] Therefore, the increases in helicity can be attributed to both helix-inducing substitutions: Aib at 2e and Cha at 3a (Armstrong, K. M.; Fairman, R.; Baldwin, R. L. J. Mol Biol. 1993, 230 (1), 284. and Venkatraman, J.; Shankaramma, S. C.; Balaram, P. Chem. Rev. 2001, 101 (10), 3131).

Chain of Mcl-1 (Q07820 whole entry): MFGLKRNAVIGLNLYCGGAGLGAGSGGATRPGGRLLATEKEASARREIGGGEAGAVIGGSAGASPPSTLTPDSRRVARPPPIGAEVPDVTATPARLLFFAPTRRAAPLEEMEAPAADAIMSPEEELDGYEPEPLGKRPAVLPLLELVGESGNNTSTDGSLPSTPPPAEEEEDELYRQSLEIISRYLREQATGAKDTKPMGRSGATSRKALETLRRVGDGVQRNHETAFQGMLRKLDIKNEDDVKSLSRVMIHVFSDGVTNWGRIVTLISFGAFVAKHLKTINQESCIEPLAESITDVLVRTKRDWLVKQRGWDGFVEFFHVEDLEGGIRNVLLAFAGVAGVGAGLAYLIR

half-lives (protease resistance) compared to M1d (chymotrypsin)	EC50 (Mcl-1/Myc 2640)	EC50 (MDA-MB 231)	Mcl-1-binding affinity in comparison to MS1 (Mcl-1)	Compound	activity in Bax/Bak deficient cells (Bax/Bak deficient cells)	helicity in solution relative to MS1 [1]
longer half-lives	–	–	–	CCCC[C@H](NC(=O)[C@H](Cc1c[nH]c2ccccc12)NC(=O)[C@@H](N)[C@@H](C)CC)C(=O)NC(C)(C)C(=O)N[C@@H](CCC(N)=O)C(=O)NCC(=O)N[C@@H](CC(C)C)C(=O)N[C@@H](CCCNC(=N)N)C(=O)N[C@@H](CCCNC(=N)N)C(=O)N[C@@H](CC(C)C)C(=O)NCC(=O)N[C@@H](CC(=O)O)C(=O)N[C@@H](CCC(=O)O)C(=O)N[C@H](C(=O)NC1(C)CCCC=CCCCC(C)(C(=O)N[C@@H](CCCNC(=N)N)C(=O)N[C@@H](CCCNC(=N)N)C(N)=O)NC(=O)[C@H](Cc2ccc(O)cc2)NC(=O)[C@H](Cc2ccc(O)cc2)NC(=O)[C@H](C)NC1=O)[C@@H](C)CC (stereo partly shown) [M2d, IWBAibQGLRRLGDEIXAYYXRR] (H-IW[Nle][Aib]QGLRRLGDEI[ξαMeNle(6-ylidene)]AYY[ξαMeNle(6-ylidene)]RR-NH2; staple 15-19)	–	–
longer half-lives	30 nM	> 5000 nM	–	CCCC[C@H](NC(=O)[C@H](Cc1c[nH]c2ccccc12)NC(=O)[C@@H](N)[C@@H](C)CC)C(=O)NC(C)(C)C(=O)N[C@@H](CCC(N)=O)C(=O)NCC(=O)N[C@@H](CC1CCCCC1)C(=O)N[C@@H](CCCNC(=N)N)C(=O)N[C@@H](CCCNC(=N)N)C(=O)N[C@@H](CC(C)C)C(=O)NCC(=O)N[C@@H](CC(=O)O)C(=O)N[C@@H](CCC(=O)O)C(=O)N[C@H](C(=O)NC1(C)CCCC=CCCCC(C)(C(=O)N[C@@H](CCCNC(=N)N)C(=O)N[C@@H](CCCNC(=N)N)C(N)=O)NC(=O)[C@H](Cc2ccc(O)cc2)NC(=O)[C@H](Cc2ccc(O)cc2)NC(=O)[C@H](C)NC1=O)[C@@H](C)CC (stereo partly shown) [M3d, IWBAibQGChaRRLGDEIXAYYXRR] (H-IW[Nle][Aib]QG[Cha]RRLGDEI[ξαMeNle(6-ylidene)]AYY[ξαMeNle(6-ylidene)]RR-NH2; staple 15-19)	–	–
–	–	–	improved	IWBTQGLRRLGDEIXAYYXRR [M1d]	Bax/Bak independent activity	~3 fold
